In patent US8916499B2, “Herbicidal compositions comprising 4-amino-3-chloro-5-fluoro-6-(4-chloro-2-fluoro-3-methoxyphenyl) pyridine-2-carboxylic acid or a derivative thereof and a protoporphyrinogen oxidase inhibitor” (Dow AgroSciences LLC, priority 2012, dated 2014):

How the values were obtained:
IPOHE [1] = assay: Postemergence foliar-applied weed control, direct seeded rice, greenhouse (Example I); assay type: in vivo, Ipomoea hederacea Jacq.
ECHOR = assay: In-water applied weed control, transplanted paddy rice, greenhouse (Example II); assay type: in vivo, Echinochloa oryzoides (Ard.) Fritsch
IPOHE [2] = assay: Pre-emergence soil-applied weed control, greenhouse (Example IV); assay type: in vivo, Ipomoea hederacea (L.) Jacq.
From the text: Seeds or nutlets of the desired test plant species were planted in a soil matrix prepared by mixing a loam soil (32 percent silt, 23 percent clay, and 45 percent sand, with a pH of about 6.5 and an organic matter content of about 1.9 percent) and calcareous grit in an 80 to 20 ratio. The soil matrix was contained in plastic pots with a volume of 1 quart and a surface area of 83.6 square centimeters (cm^2).
Treatments consisted of the benzyl ester of 4-amino-3-chloro-5-fluoro-6-(4-chloro-2-fluoro-3-methoxy-phenyl)pyridine-2-carboxylic acid (compound A) formulated as an SC (suspension concentrate) and various herbicidal components alone and in combination. Forms of compound A were applied on an acid equivalent basis.
Other herbicidal components were applied on an acid equivalent or active ingredient basis and included the protoporphyrinogen oxidase (PPO)-inhibiting herbicides, flumioxazin formulated as Payload® and oxadiazon formulated as Ronstar® 50W.
Treatment requirements were calculated based upon the rates being tested, the concentration of active ingredient or acid equivalent in the formulation, and a 12 mL application volume at a rate of 187 L/ha.
For treatments comprised of formulated compounds, measured amounts of compounds were placed individually in 25 mL glass vials and diluted in a volume of 1.25% (v/v) Agri-Dex® crop oil concentrate (COC) to obtain 12× stock solutions. […] Application solutions were prepared by adding an appropriate amount of each stock solution (e.g., 1 mL) and diluted to the appropriate final concentrations with the addition of 10 mL of an aqueous mixture of 1.25% (v/v) COC so that the final spray solutions contained 1.25% (v/v) COC.
All stock solutions and applications solutions were visually inspected for compound compatibility prior to application. Spray solutions were applied to the soil with an overhead Mandel track sprayer equipped with a 8002E nozzles calibrated to deliver 187 L/ha over an application area of 0.503 m^2 at a spray height of 18 inches (46 cm) above average pot height. Control pots were sprayed in the same manner with the solvent blank.
The treated and control pots were placed in a greenhouse and top watered as needed. When required to ensure good germination and healthy plants, a fungicide treatment and/or other chemical or physical treatment was applied. The pots were maintained in a greenhouse with an approximate 14 hr photoperiod which was maintained at about 29° C. during the day and 26° C. during the night. Nutrients (Peters® Excel 15-5-15 5-Ca 2-Mg) were applied in the irrigation solution as needed and water was added on a regular basis. Supplemental lighting was provided with overhead metal halide 1000-Watt lamps as necessary. After approximately 4 weeks, the condition of the test plants as compared with that of the untreated plants was determined visually and scored on a scale of 0 to 100 percent where 0 corresponds to no injury or growth inhibition and 100 corresponds to complete kill.
Colby's equation was used to determine the herbicidal effects expected from the mixtures (Colby, S. R. 1967. Calculation of the synergistic and antagonistic response of herbicide combinations. Weeds 15:20-22.).
The following equation was used to calculate the expected activity of mixtures containing two active ingredients, A and B: Expected=A+B−(A×B/100)

LEFCH [3] = assay: Postemergence foliar-applied weed control, direct seeded rice, greenhouse (Example I); assay type: in vivo, Leptochloa chinensis (L.) Nees; conditions: g ae/ha Compound A n-Butyl Ester+g ai/ha carfentrazone-ethyl: r11 16+0, r12 0+28, r13 16+28
LEFCH [4] = assay: In-water applied weed control, transplanted paddy rice, greenhouse (Example II); assay type: in vivo, Leptochloa chinensis (L.) Nees; conditions: 35 g ae/ha alone
DIGSA = assay: Postemergence foliar-applied weed control, direct seeded rice, greenhouse (Example I); assay type: in vivo, Digitaria sanguinalis (L.) Scop.
ECHCG [5] = assay: as above; assay type: in vivo, Echinochloa crusgalli (L.) Beauv.
ECHCO = assay: as above; assay type: in vivo, Echinochloa colona (L.) Link; conditions: g ae/ha Compound A Acid+g ai/ha oxyfluorfen (SC): r24 4.38+0, r25 8.75+0, r26 0+90, r27 4.38+90, r28 8.75+90
CYPRO = assay: In-water applied weed control, transplanted paddy rice, greenhouse (Example II); assay type: in vivo, Cyperus rotundus L.
SCPJU = assay: as above; assay type: in vivo, Schoenoplectus juncoides (Roxb.) Palla
ECHCG [6] = assay: as above; assay type: in vivo, Echinochloa crus-galli (L.) P. Beauv.; conditions: 56.25 g ai/ha alone
FIMMI = assay: as above; assay type: in vivo, Fimbristylis miliacea (L.) Vahl
[7] = g ae/ha Compound A n-Butyl Ester+g ai/ha oxadiazon: r11 17.5+0, r12 0+250, r13 17.5+250

`CC(C)Oc1cc(-n2nc(C(C)(C)C)oc2=O)c(Cl)cc1Cl` [Oxadiazon, 3-[2,4-dichloro-5-(1-methylethoxy)phenyl]-5-(1,1-dimethylethyl)-1,3,4-oxadiazol-2(3H)-one] was tested, and the “Visual Weed Control (%) - 21 DAA IPOHE Obs” value (IPOHE [1]; g ae/ha Compound A Benzyl Ester+g ai/ha oxadiazon: r33 17.5+0, r34 0+250, r35 17.5+250) was 5%, the “Visual Weed Control (%) - 21 DAA IPOHE Obs” value (IPOHE [1]; [7]) was 5% and the “Visual Weed Control (%) - 20 DAA IPOHE Obs” value (IPOHE [1]; second section, g ae/ha Compound A Acid+g ai/ha oxadiazon: r23 17.5+0, r24 35+0, r25 0+250, r26 17.5+250, r27 35+250) was 5%. The “Visual Weed Control (%) - 21 DAA ECHOR Obs” value (ECHOR; 62.5 g ai/ha alone) was 15%, the “Visual Weed Control (%) - 21 DAA ECHOR Obs” value (ECHOR; 250 g ai/ha alone) was 18% and the “Visual Weed Control (%) - 21 DAA ECHOR Obs” value (ECHOR; second block, g ae/ha Compound A Acid+g ai/ha oxadiazon: r22 35+0, r23 70+0, r24 0+250, r25 35+250, r26 70+250) was 18%. For the same compound, the “Visual Weed Control (%) - 32 DAA IPOHE Obs” value (IPOHE [2]; 560 g ai/ha alone) was 50% and the “Visual Weed Control (%) - 32 DAA IPOHE Obs” value (IPOHE [2]; 1120 g ai/ha alone) was 100%.
For `C#CCOc1cc(-n2nc(C(C)(C)C)oc2=O)c(Cl)cc1Cl` [Oxadiargyl, 3-[2,4-dichloro-5-(2-propynyloxy)phenyl]-5-(1,1-dimethylethyl)-1,3,4-oxadiazol-2(3H)-one], the “Visual Weed Control (%) - 22 DAA IPOHE Obs” value (IPOHE [1]; g ae/ha Compound A Acid+g ai/ha oxadiargyl: r10 4.38+0, r11 8.75+0, r12 17.5+0, r13 0+50, r14 4.38+50, r15 8.75+50, r16 17.5+50) was 25% and the “Visual Weed Control (%) - 22 DAA IPOHE Obs” value (IPOHE [1]; g ae/ha Compound A Benzyl Ester+g ai/ha oxadiargyl: r11 4.38+0, r12 8.75+0, r13 0+50, r14 4.38+50, r15 8.75+50) was 25%.
In the case of `CCCCOC(=O)c1nc(-c2ccc(Cl)c(OC)c2F)c(F)c(N)c1Cl` [Compound A n-Butyl Ester], the “Visual Weed Control (%) - 19 DAA LEFCH Obs” value (LEFCH [3]) was 10%, the “Visual Weed Control (%) - 21 DAA IPOHE Obs” value (IPOHE [1]; [7]) was 40% and the “Visual Weed Control (%) - 21 DAA ECHOR Obs” value (ECHOR; 35 g ae/ha alone) was 25%. For the same compound, the “Visual Weed Control (%) - 21 DAA ECHOR Obs” value (ECHOR; 70 g ae/ha alone) was 38% and the “Visual Weed Control (%) - 21 DAA LEFCH Obs” value (LEFCH [4]) was 8%.
For `CCOc1cc(Oc2ccc(C(F)(F)F)cc2Cl)ccc1[N+](=O)[O-]` [Oxyfluorfen, 2-chloro-1-(3-ethoxy-4-nitrophenoxy)-4-(trifluoromethyl)benzene, reference compound], the “Visual Weed Control (%) - 23 DAA DIGSA Obs” value (DIGSA; g ae/ha Compound A Benzyl Ester+g ai/ha oxyfluorfen (SC): r14 4.38+0, r15 8.75+0, r16 17.5+0, r17 0+180, r18 4.38+180, r19 8.75+180, r20 17.5+180) was 60%, the “Visual Weed Control (%) - 21 DAA DIGSA Obs” value (DIGSA; g ae/ha Compound A Benzyl Ester+g ai/ha oxyfluorfen (technical): r15 4.38+0, r16 8.75+0, r17 17.5+0, r18 0+180, r19 4.38+180, r20 8.75+180, r21 17.5+180) was 50% and the “Visual Weed Control (%) - 23 DAA ECHCG Obs” value (ECHCG [5]; g ae/ha Compound A Acid+g ai/ha oxyfluorfen (SC): r13 4.38+0, r14 8.75+0, r15 17.5+0, r16 0+180, r17 4.38+180, r18 8.75+180, r19 17.5+180) was 30%. The “Visual Weed Control (%) - 23 DAA ECHCO Obs” value (ECHCO) was 50%, the “Visual Weed Control (%) - 23 DAA IPOHE Obs” value (IPOHE [1]; g ae/ha Compound A Benzyl Ester+g ai/ha oxyfluorfen (SC): r36 4.38+0, r37 8.75+0, r38 17.5+0, r39 0+90, r40 0+180, r41 4.38+90, r42 8.75+90, r43 17.5+90, r44 4.38+180, r45 8.75+180, r46 17.5+180) was 85% and the “Visual Weed Control (%) - 21 DAA CYPRO Obs” value (CYPRO; g ae/ha Compound A Acid+g ai/ha oxyfluorfen (SC): r28 16+0, r29 32+0, r30 64+0, r31 0+135, r32 0+270, r33 16+135, r34 32+135, r35 64+135, r36 16+270, r37 32+270, r38 64+270) was 0%. The “Visual Weed Control (%) - 22 DAA CYPRO Obs” value (CYPRO; g ae/ha Compound A Acid+g ai/ha oxyfluorfen (technical): r11 10.6+0, r12 21.2+0, r13 42.4+0, r14 0+180, r15 10.6+180, r16 21.2+180, r17 42.4+180) was 50%, the “Visual Weed Control (%) - 21 DAA CYPRO Obs” value (CYPRO; g ae/ha Compound A Benzyl Ester+g ai/ha oxyfluorfen (SC): r11 32+0, r12 0+135, r13 0+270, r14 32+135, r15 32+270) was 0% and the “Visual Weed Control (%) - 22 DAA SCPJU Obs” value (SCPJU; g ae/ha Compound A Acid+g ai/ha oxyfluorfen (technical): r19 8.75+0, r20 17.5+0, r21 35+0, r22 0+180, r23 0+360, r24 8.75+180, r25 17.5+180, r26 35+180, r27 8.75+360, r28 17.5+360, r29 35+360) was 0%.
`CC(C)=C1OC(=O)N(c2cc(OC3CCCC3)c(Cl)cc2F)C1=O` [Pentoxazone, 3-[4-chloro-5-(cyclopentyloxy)-2-fluorophenyl]-5-(1-methylethylidene)-2,4-oxazolidinedione] was tested, and the “Visual Weed Control (%) - 21 DAA ECHCG Obs” value (ECHCG [6]) was 0%, the “Visual Weed Control (%) - 21 DAA CYPRO Obs” value (CYPRO; 56.25 g ai/ha alone) was 0% and the “Visual Weed Control (%) - 21 DAA CYPRO Obs” value (CYPRO; 112.5 g ai/ha alone) was 0%. For the same compound, the “Visual Weed Control (%) - 21 DAA SCPJU Obs” value (SCPJU; 56.25 g ai/ha alone) was 0%, the “Visual Weed Control (%) - 21 DAA SCPJU Obs” value (SCPJU; 112.5 g ai/ha alone) was 0% and the “Visual Weed Control (%) - 21 DAA FIMMI Obs” value (FIMMI; 56.25 g ai/ha alone) was 25%. For the same compound, the “Visual Weed Control (%) - 21 DAA FIMMI Obs” value (FIMMI; 112.5 g ai/ha alone) was 20%.
With `CCOC(=O)COc1cc(-c2nn(C)c(OC(F)F)c2Cl)c(F)cc1Cl` [Pyraflufen-ethyl, ethyl 2-[2-chloro-5-[4-chloro-5-(difluoromethoxy)-1-methyl-1H-pyrazol-3-yl]-4-fluorophenoxy]acetate, reference compound] the “Visual Weed Control (%) - 21 DAA ECHCG Obs” value (ECHCG [5]; g ae/ha Compound A Benzyl Ester+g ai/ha pyraflufen-ethyl: r11 8+0, r12 0+5.3, r13 0+10.6, r14 8+5.3, r15 8+10.6) was 15%.
